Measured values as given in patent US8841312B2, “Fused pyridine, pyrimidine and triazine compounds as cell cycle inhibitors” (Amgen Inc., priority 2007, dated 2014).

target: Cdk4/CyclinD1 (Homo sapiens (Human), UniProt P11802); test: Cdk4 kinase inhibition assay with recombinant Cdk4/CyclinD1, Rb substrate, [33P]-ATP filter plate; format: biochemical; conditions: 25 μM ATP, read-out: Cdk 4 IC50
Procedure: The Cdk4 and Cdk6 inhibitory activity of the compounds is measured with a kinase inhibition assay using recombinant Cdk4/CyclinD1 or Cdk6/CyclinD3 protein complexes. The protein substrate used in the assay is the retinoblastoma protein (Rb). The kinase reactions are carried out in a 96-well filter plate (MSDV N6B50, Millipore). […] The mixture is incubated at room temperature for 1 hour and the proteins precipitated with an equal volume of 20% TCA. The plates are washed with 10% TCA according to the manufacturer's instruction and dried at room temperature. The amount of the phosphorylated Rb is determined with a TopCount (PerkinElmer). The IC50 of a compound is determined by nonlinear regression curve fitting using software program Prism 5 (GraphPad Software).

Sequence of Cdk4/CyclinD1 (P11802 whole entry): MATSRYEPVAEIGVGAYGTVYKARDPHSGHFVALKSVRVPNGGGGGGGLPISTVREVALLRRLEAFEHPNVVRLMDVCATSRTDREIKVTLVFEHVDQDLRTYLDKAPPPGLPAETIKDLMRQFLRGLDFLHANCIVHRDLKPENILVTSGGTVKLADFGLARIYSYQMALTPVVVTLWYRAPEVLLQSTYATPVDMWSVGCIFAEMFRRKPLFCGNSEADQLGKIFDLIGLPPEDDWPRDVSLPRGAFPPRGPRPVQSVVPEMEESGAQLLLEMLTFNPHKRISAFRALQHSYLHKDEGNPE
Sequence of Cdk4/CyclinD1 (P24385 whole entry partner): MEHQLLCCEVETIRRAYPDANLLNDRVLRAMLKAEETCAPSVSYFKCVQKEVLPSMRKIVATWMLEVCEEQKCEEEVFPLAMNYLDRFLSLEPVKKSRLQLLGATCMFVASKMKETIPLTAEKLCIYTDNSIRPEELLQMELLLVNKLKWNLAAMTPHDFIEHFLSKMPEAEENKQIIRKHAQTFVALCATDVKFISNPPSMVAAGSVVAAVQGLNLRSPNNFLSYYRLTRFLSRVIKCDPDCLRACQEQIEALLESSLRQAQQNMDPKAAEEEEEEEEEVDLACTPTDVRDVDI

SMILES | IC50
c1ncc2c(n1)c1cnc(Nc3ccc(N4CCNCC4)cn3)nc1n2C1CCCC1 [Example 59, 5-Cyclopentyl-N-(5-(1-piperazinyl)-2-pyridinyl)-5H-pyrimido[4′,5′:4,5]pyrrolo[2,3-d]pyrimidin-7-amine] | 15 nM
NCC1CCN(c2ccc(Nc3ncc4c5ccncc5n(C5CCCC5)c4n3)nc2)CC1 [Example 60, 4-Aminomethyl-1-(6-((9-cyclopentyl-9H-pyrido[4′,3′:4,5]pyrrolo[2,3-d]pyrimidin-2-yl)amino)-3-pyridinyl)-piperidine] | 4 nM
COC1CCN(c2ccc(Nc3ncc4c5ccncc5n(C5CCCC5)c4n3)nc2)C1 (stereo not drawn) [Example 73] | 17 nM
CC1CCN(c2ccc(Nc3ncc4c5ccncc5n(C5CCCC5)c4n3)nc2)C1 (stereo not drawn) [Example 74] | 56 nM
c1cc2c3cnc(Nc4ccc(N5CCC(N6CCCC6)CC5)cn4)nc3n(C3CCCC3)c2cn1 [Example 76] | 5.9 nM
CC1CN(c2cnc(Nc3ncc4c5ccncc5n(C5CCCC5)c4n3)cn2)CC(C)N1 (stereo not drawn) [Example 79] | 12 nM
C[C@H]1CN(c2cnc(Nc3ncc4c5ccncc5n(C5CCCC5)c4n3)cn2)CCN1 [Example 81] | 9.2 nM
NC1CCN(c2cnc(Nc3ncc4c5ccncc5n(C5CCCC5)c4n3)cn2)CC1 [Example 82] | 2.6 nM
c1cc2c3cnc(Nc4cnc(NC5CCNCC5)cn4)nc3n(C3CCCC3)c2cn1 [Example 83] | 12 nM
c1cc2c3cnc(Nc4cnc(N5CCCNCC5)cn4)nc3n(C3CCCC3)c2cn1 [Example 86] | 6.4 nM
CC1CCN(c2cnc(Nc3ncc4c5ccncc5n(C5CCCC5)c4n3)cn2)C1 (stereo not drawn) [Example 88] | 477 nM
N[C@H]1CCN(c2cnc(Nc3ncc4c5ccncc5n(C5CCCC5)c4n3)cn2)C1 [Example 89] | 7.6 nM
c1cc2c3cnc(Nc4ccc(N[C@H]5CCNC5)nn4)nc3n(C3CCCC3)c2cn1 [Example 92] | 8.8 nM
NCC1CCCN(c2ccc(Nc3ncc4c5ccncc5n(C5CCCC5)c4n3)nn2)C1 (stereo not drawn) [Example 95] | 4.4 nM
c1cc2c3cnc(Nc4ccc(NCC5CCCCN5)nn4)nc3n(C3CCCC3)c2cn1 (stereo not drawn) [Example 99] | 4.9 nM
c1cc2c3cnc(Nc4ccc(NCC5COCCN5)nn4)nc3n(C3CCCC3)c2cn1 (stereo not drawn) [Example 100] | 6.2 nM
CN1CCN(c2ccc(Nc3ncc4c5ccncc5n(C5CCCC5)c4n3)nn2)CC1 [Example 112] | 5.9 nM
CC1CN(c2ccc(Nc3ncc4c5ccncc5n(C5CCCC5)c4n3)nn2)CC(C)N1 (stereo not drawn) [Example 113] | 4.2 nM
O=C1CN(c2ccc(Nc3ncc4c5ccncc5n(C5CCCC5)c4n3)nn2)CCN1 [Example 115] | 2.3 nM
NC1CCCN(c2ccc(Nc3ncc4c5ccncc5n(C5CCCC5)c4n3)nn2)C1 (stereo not drawn) [Example 116] | 2 nM
CC1CCN(c2ccc(Nc3ncc4c5ccncc5n(C5CCCC5)c4n3)nn2)C1 (stereo not drawn) [Example 120] | 19 nM
CCC1CN(c2ccc(Nc3ncc4c5ccncc5n(C5CCCC5)c4n3)nn2)CCN1 (stereo not drawn) [Example 121] | 4.3 nM
O=c1[nH]ccc2c3cnc(Nc4ccc(N5CCNCC5)nn4)nc3n(C3CCCC3)c12 [Example 122, 9-Cyclopentyl-2-((6-(1-piperazinyl)-3-pyridazinyl)amino)-7,9-dihydro-8H-pyrido[4′,3′:4,5]pyrrolo[2,3-d]pyrimidin-8-one] | 8.7 nM
CC1CN(c2ccc(Nc3ncc4c5cc[nH]c(=O)c5n(C5CCCC5)c4n3)nc2)CC(C)N1 (stereo not drawn) [Example 124] | 17 nM
NC1CCN(c2ccc(Nc3ncc4c5cc[nH]c(=O)c5n(C5CCCC5)c4n3)nn2)CC1 [Example 126] | 2 nM
CN1CCN(c2ccc(Nc3ncc4c5cc[nH]c(=O)c5n(C5CCCC5)c4n3)nn2)CC1 [Example 128] | 29 nM
CC1(C)CN(c2ccc(Nc3ncc4c5cc[nH]c(=O)c5n(C5CCCC5)c4n3)nn2)CCN1 [Example 130] | 20 nM

Continued by falling IC50, values first:

IC50 | SMILES
48.1 nM | CN(C)C1CCN(c2ccc(Nc3ncc4c5cc[nH]c(=O)c5n(C5CCCC5)c4n3)nc2)CC1 [Example 123]
43 nM | COC1CCN(c2cnc(Nc3ncc4c5ccncc5n(C5CCCC5)c4n3)cn2)C1 (stereo not drawn) [Example 87]
22 nM | c1cc2c3cnc(Nc4cnc(N5CCOCC5)cn4)nc3n(C3CCCC3)c2cn1 [Example 84]
20 nM | CN(C)C1CCN(c2cnc(Nc3ncc4c5ccncc5n(C5CCCC5)c4n3)cn2)CC1 [Example 85]
16 nM | C[C@H]1CN(c2ccc(Nc3ncc4c5cc[nH]c(=O)c5n(C5CCCC5)c4n3)nn2)CCN1 [Example 129]
15 nM | CN1CCN(c2cnc(Nc3ncc4c5ccncc5n(C5CCCC5)c4n3)cn2)CC1 [Example 78]
12 nM | CC1CN(c2ccc(Nc3ncc4c5cc[nH]c(=O)c5n(C5CCCC5)c4n3)nn2)CC(C)N1 (stereo not drawn) [Example 125]
11 nM | c1cc2c3cnc(Nc4ccc(N5CCNCC5)cn4)nc3n(C3CCCCC3)c2cn1 [Example 23, (9-Cyclohexyl-9H-pyrido[4′,3′,4,5]pyrrolo[2,3-d]pyrimidin-2-yl)-(5-piperazin-1-yl-pyridin-2-yl)-amine]
9.6 nM | CN(C)C1CCN(c2ccc(Nc3ncc4c5ccncc5n(C5CCCC5)c4n3)nc2)CC1 [Example 12]
6.1 nM | c1cc2c3cnc(Nc4ccc(N[C@@H]5CCNC5)nn4)nc3n(C3CCCC3)c2cn1 [Example 91]
5.6 nM | N[C@@H]1CCN(c2cnc(Nc3ncc4c5ccncc5n(C5CCCC5)c4n3)cn2)C1 [Example 90]
5.3 nM | CN(C)C1CCN(c2ccc(Nc3ncc4c5cc[nH]c(=O)c5n(C5CCCC5)c4n3)nn2)CC1 [Example 127]
5.2 nM | Fc1cncc2c1c1cnc(Nc3ccc(N4CCNCC4)cn3)nc1n2C1CCCC1 [Example 58, 9-Cyclopentyl-5-fluoro-N-(5-(1-piperazinyl)-2-pyridinyl)-9H-pyrido[4′,3′:4,5]pyrrolo[2,3-d]pyrimidin-2-amine]
4.2 nM | N#CC1CCN(c2ccc(Nc3ncc4c5ccncc5n(C5CCCC5)c4n3)nn2)C1 (stereo not drawn) [Example 118]
3.6 nM | c1cc2c3cnc(Nc4ccc(NCC5CCNC5)cn4)nc3n(C3CCCC3)c2cn1 (stereo not drawn) [Example 70]
3.5 nM | C[C@@H]1CN(c2cnc(Nc3ncc4c5ccncc5n(C5CCCC5)c4n3)cn2)CCN1 [Example 80]
3.4 nM | COC1CCN(c2ccc(Nc3ncc4c5ccncc5n(C5CCCC5)c4n3)nn2)C1 (stereo not drawn) [Example 110]
2.3 nM | CC1CN(c2ccc(Nc3ncc4c5ccncc5n(C5CCCC5)c4n3)nc2)CC(C)N1 (stereo not drawn) [Example 72]
2.2 nM | CC1(C)CN(c2ccc(Nc3ncc4c5ccncc5n(C5CCCC5)c4n3)nn2)CCN1 [Example 10]
2 nM | C[C@H]1CN(c2ccc(Nc3ncc4c5ccncc5n(C5CCCC5)c4n3)nc2)CCN1 [Example 62]
1.7 nM | C[C@@H]1CN(c2ccc(Nc3ncc4c5ccncc5n(C5CCCC5)c4n3)nc2)CCN1 [Example 61]
1.4 nM | CNC1CCN(c2ccc(Nc3ncc4c5ccncc5n(C5CCCC5)c4n3)nc2)CC1 [Example 75]
1.3 nM | NCC1CCCN(c2ccc(Nc3ncc4c5ccncc5n(C5CCCC5)c4n3)nc2)C1 (stereo not drawn) [Example 67]
0.32 nM | c1ccc(-n2c3cnccc3c3cnc(Nc4ccc(N5CCNCC5)cc4)nc32)cc1 [Example 17, (9-Phenyl-9H-pyrido[4′,3′:4,5]pyrrolo[2,3-d]pyrimidin-2-yl)-(4-piperazin-1-yl-phenyl)amine]
